Laboratory results taken from patent US9976146B2, “Aptamer targeting MAGE-A3 peptide and uses thereof” (Academia Sinica, priority 2014, dated 2018).

Assays:
[1] = target: T1, MAGE-A3111-125 peptide (Homo sapiens, UniProt P43357); assay: Peptide-magnetic bead binding assay with elution and PCR amplification (FIG. 1); conditions: peptide on streptavidin-coupled magnetic beads
Excerpt: FIG. 1 is a photograph illustrating the PCR results of the binding affinity and specificity between Ap52 of Example 2 and specified peptides, in which peptide MAGE-A3111-125 (+), NY-ESO-1119-143 (N1), NY-ESO-1157-170 (N2), NY-ESO-187-111 (N3), or no peptide (−) were reacted with Ap52, followed by elution and PCR amplification; PB served as a control of oligonucleotide aptamer;
A total of ninety-four different sequences were obtained and further assayed individually for its binding affinity and specificity to MAGE-A3111-125. Plasmid DNA was first amplified by use of anchored PCR, as described above. The resulting ssDNA products were purified through 12% denaturing PAGE and incubated with the biotinylated peptide MAGE-A3111-125, which was pre-incubated with the streptavidin-coupled magnetic beads and thus formed a peptide-magnetic bead complex through the streptavidin-biotin interaction. The sequences that bound specifically to the peptide MAGE-A3111-125 were isolated by the magnet and subject to further purification, as the procedure described in library selection.
Thus, Ap52 is highly specific in terms of binding with MAGE-A3111-125 peptide.

[2] = target: T1, MAGE-A3111-125 peptide; assay: Isothermal titration calorimetry (ITC) for dissociation constant (Kd) determination; type: binding
Procedure: Isothermal Titration Calorimetry (ITC) for Dissociation Constant (Kd) Determination
Thermodynamic profile of the interaction between DNA and peptide was measured with a MicroCal iTC200 (GE Healthcare Life Sciences) at 25° C. in washing buffer (0.45% glucose, 5 mM MgCl2, in Dulbecco's Phosphate-Buffered Saline). The unmodified MAGE-A3111-125 peptide (0.3 mM, 200 μl) was titrated with 18 successive injections of 2 μl aptamer (0.1 mM) at 150 s intervals. The data were analyzed using MicroCal Origin 7 and fit with a one-set-of sites binding model to obtain values of enthalpy change (AH) and association constant (Ka).
Isothermal titration calorimetry (ITC) is a technique used to measure the thermodynamic profile of the interactions between two molecules, and thus can be used to determine the respective binding affinities of Ap16 and Ap52 to MAGE-A3111-125 peptide. […] Therefore, both Ap52 and Ap16 are effective in targeting MAGE-A3111-125-peptide.

[3] = ITC at 25° C. in washing buffer, one-set-of sites binding model

Row | Substance | binding to MAGE-A3111-125 peptide [1] | Kd [2, 3] | ΔH (enthalpy change) [2, 3] | Kd values, in words ([2]; general statement on binding to the MAGE-A3 peptide)
1 | Ap16-control: 16-nucleotide region (SEQ ID NO: 7) from another oligonucleotide selected from SELEX, used as a negative control (ATCATTCGGATGTGTG; listed as DNA, chemistry not fully specified) | failed to bind | – | – | –
2 | Ap16: oligonucleotide aptamer of 16 nucleotides AGCACTCAATATTCCC (SEQ ID NO: 1), central randomized region of Ap52 (listed as DNA, chemistry not given here) | – | 95 nM | -41 kcal/mol | nanomolar range
